Laboratory results as given in ChEMBL document CHEMBL1275257, “Antimicrobial activity of CHIR-090, an inhibitor of lipopolysaccharide biosynthesis, against the Burkholderia cepacia complex” (2010).
≈ marks a conversion by molar mass, not a printed value. Calls of active or inactive are those of the source. The rule behind the calls is not given here.

What was measured:
[1] = tested on: Burkholderia multivorans; experiment: Antimicrobial activity against genomovar type II Burkholderia multivorans JTC; format: functional
[2] = tested on: Burkholderia vietnamiensis; experiment: Antimicrobial activity against genomovar type V Burkholderia vietnamiensis FC441 at 40 ug/disk by disk diffusion growth inhibition assay; format: functional; conditions: read-out: DIZ
[3] = tested on: Burkholderia dolosa; experiment: Antimicrobial activity against genomovar type VI Burkholderia dolosa CEP021 at 40 ug/disk by disk diffusion growth inhibition assay; format: functional; conditions: read-out: DIZ
[4] = tested on: Burkholderia multivorans; experiment: Antimicrobial activity against genomovar type II Burkholderia multivorans 249-2; format: functional
[5] = tested on: Burkholderia vietnamiensis; experiment: Antimicrobial activity against genomovar type V Burkholderia vietnamiensis PC259 at 40 ug/disk by disk diffusion growth inhibition assay; format: functional; conditions: read-out: DIZ
[6] = tested on: Burkholderia anthina; experiment: Antimicrobial activity against genomovar type VIII Burkholderia anthina AU1293 at 40 ug/disk by disk diffusion growth inhibition assay; format: functional; conditions: read-out: DIZ
[7] = tested on: Burkholderia cepacia; experiment: Antimicrobial activity against genomovar type I Burkholderia cepacia ATCC 17759 at 40 ug/disk by disk diffusion growth inhibition assay; format: functional, organism-based
[8] = tested on: Burkholderia pyrrocinia; experiment: Antimicrobial activity against genomovar type IX Burkholderia pyrrocinia C1469 at 40 ug/disk by disk diffusion growth inhibition assay; format: functional
[9] = tested on: Burkholderia pyrrocinia; experiment: Antimicrobial activity against genomovar type IX Burkholderia pyrrocinia ATCC 15958 at 40 ug/disk by disk diffusion growth inhibition assay; format: functional; conditions: read-out: DIZ
[10] = tested on: Burkholderia multivorans; experiment: Antimicrobial activity against genomovar type II Burkholderia multivorans LMG 13010 at 40 ug/disk by disk diffusion growth inhibition assay; format: functional; conditions: read-out: DIZ
[11] = tested on: Burkholderia pyrrocinia; experiment: Antimicrobial activity against genomovar type IX Burkholderia pyrrocinia BC011 at 40 ug/disk by disk diffusion growth inhibition assay; format: functional; conditions: read-out: DIZ
[12] = tested on: Burkholderia cenocepacia; experiment: Antimicrobial activity against genomovar type III Burkholderia cenocepacia C5424 at 40 ug/disk by disk diffusion growth inhibition assay; format: functional; conditions: read-out: DIZ
[13] = tested on: Burkholderia anthina; experiment: Antimicrobial activity against genomovar type VIII Burkholderia anthina C1765 at 40 ug/disk by disk diffusion growth inhibition assay; format: functional; conditions: read-out: DIZ
[14] = tested on: Burkholderia anthina; experiment: Antimicrobial activity against genomovar type VIII Burkholderia anthina W92 at 40 ug/disk by disk diffusion growth inhibition assay; format: functional
[15] = tested on: Burkholderia multivorans; experiment: Antimicrobial activity against genomovar type II Burkholderia multivorans C1576; format: functional
[16] = tested on: Burkholderia dolosa; experiment: Antimicrobial activity against genomovar type VI Burkholderia dolosa AU0645 at 40 ug/disk by disk diffusion growth inhibition assay; format: functional; conditions: read-out: DIZ
[17] = tested on: Burkholderia ambifaria; experiment: Antimicrobial activity against genomovar type VII Burkholderia ambifaria AMMD at 40 ug/disk by disk diffusion growth inhibition assay; format: functional; conditions: read-out: DIZ
[18] = tested on: Burkholderia dolosa; experiment: Antimicrobial activity against genomovar type VI Burkholderia dolosa STM1441 at 40 ug/disk by disk diffusion growth inhibition assay; format: functional; conditions: read-out: DIZ
[19] = tested on: Burkholderia ambifaria; experiment: Antimicrobial activity against genomovar type VII Burkholderia ambifaria ATCC 53266 at 40 ug/disk by disk diffusion growth inhibition assay; format: functional; conditions: read-out: DIZ
[20] = tested on: Burkholderia cenocepacia; experiment: Antimicrobial activity against genomovar type III Burkholderia cenocepacia J2315 at 40 ug/disk by disk diffusion growth inhibition assay; format: functional, organism-based
[21] = tested on: Escherichia coli; experiment: Antimicrobial activity against Escherichia coli 25922; format: functional
[22] = tested on: Burkholderia multivorans; experiment: Antimicrobial activity against genomovar type II Burkholderia multivorans C5393 at 40 ug/disk by disk diffusion growth inhibition assay; format: functional; conditions: read-out: DIZ
[23] = tested on: Burkholderia cenocepacia; experiment: Antimicrobial activity against genomovar type III Burkholderia cenocepacia PC184 at 40 ug/disk by disk diffusion growth inhibition assay; format: functional; conditions: read-out: DIZ
[24] = tested on: Burkholderia cepacia; experiment: Antimicrobial activity against genomovar type I Burkholderia cepacia ATCC 25416 at 40 ug/disk by disk diffusion growth inhibition assay; format: functional, organism-based
[25] = tested on: Burkholderia cenocepacia; experiment: Antimicrobial activity against genomovar type III Burkholderia cenocepacia K562 at 40 ug/disk by disk diffusion growth inhibition assay; format: functional, organism-based
[26] = tested on: Burkholderia multivorans; experiment: Antimicrobial activity against genomovar type II Burkholderia multivorans C1962 at 40 ug/disk by disk diffusion growth inhibition assay; format: functional; conditions: read-out: DIZ
[27] = tested on: Burkholderia stabilis; experiment: Antimicrobial activity against genomovar type IV Burkholderia stabilis LMG 14086 at 40 ug/disk by disk diffusion growth inhibition assay; format: functional
[28] = tested on: Burkholderia multivorans; experiment: Antimicrobial activity against genomovar type II Burkholderia multivorans JTC at 40 ug/disk by disk diffusion growth inhibition assay; format: functional; conditions: read-out: DIZ
[29] = tested on: Burkholderia cepacia; experiment: Antimicrobial activity against genomovar type I Burkholderia cepacia CEP509 at 40 ug/disk by disk diffusion growth inhibition assay; format: functional, organism-based
[30] = tested on: Burkholderia multivorans; experiment: Antimicrobial activity against genomovar type II Burkholderia multivorans ATCC 17616; format: functional
[31] = tested on: Burkholderia pyrrocinia; experiment: Antimicrobial activity against genomovar type IX Burkholderia pyrrocinia ATCC 39277 at 40 ug/disk by disk diffusion growth inhibition assay; format: functional; conditions: read-out: DIZ
[32] = tested on: Burkholderia multivorans; experiment: Antimicrobial activity against genomovar type II Burkholderia multivorans CF-A1-1; format: functional
[33] = tested on: Burkholderia cenocepacia; experiment: Antimicrobial activity against genomovar type III Burkholderia cenocepacia BC7 at 40 ug/disk by disk diffusion growth inhibition assay; format: functional, organism-based
[34] = tested on: Pseudomonas aeruginosa; experiment: Antimicrobial activity against Pseudomonas aeruginosa ATCC 10145; format: functional
[35] = tested on: Burkholderia multivorans; experiment: Antimicrobial activity against genomovar type II Burkholderia multivorans ATCC 17616 at 40 ug/disk by disk diffusion growth inhibition assay; format: functional; conditions: read-out: DIZ
[36] = tested on: Burkholderia cenocepacia; experiment: Antimicrobial activity against genomovar type III Burkholderia cenocepacia J415 at 40 ug/disk by disk diffusion growth inhibition assay; format: functional; conditions: read-out: DIZ
[37] = tested on: Burkholderia multivorans; experiment: Antimicrobial activity against genomovar type II Burkholderia multivorans C5393; format: functional
[38] = tested on: Burkholderia dolosa; experiment: Antimicrobial activity against genomovar type VI Burkholderia dolosa E12 at 40 ug/disk by disk diffusion growth inhibition assay; format: functional; conditions: read-out: DIZ
[39] = tested on: Burkholderia ambifaria; experiment: Antimicrobial activity against genomovar type VII Burkholderia ambifaria CEP0996 at 40 ug/disk by disk diffusion growth inhibition assay; format: functional; conditions: read-out: DIZ
[40] = tested on: Pseudomonas aeruginosa; experiment: Antimicrobial activity against Pseudomonas aeruginosa ATCC 27853; format: functional
[41] = tested on: Burkholderia stabilis; experiment: Antimicrobial activity against genomovar type IV Burkholderia stabilis LMG 14294 at 40 ug/disk by disk diffusion growth inhibition assay; format: functional
[42] = tested on: Burkholderia multivorans; experiment: Antimicrobial activity against genomovar type II Burkholderia multivorans CFA11 at 40 ug/disk by disk diffusion growth inhibition assay; format: functional; conditions: read-out: DIZ
[43] = tested on: Burkholderia vietnamiensis; experiment: Antimicrobial activity against genomovar type V Burkholderia vietnamiensis LMG 16232 at 40 ug/disk by disk diffusion growth inhibition assay; format: functional; conditions: read-out: DIZ
[44] = tested on: Burkholderia multivorans; experiment: Antimicrobial activity against genomovar type II Burkholderia multivorans C1576 at 40 ug/disk by disk diffusion growth inhibition assay; format: functional; conditions: read-out: DIZ
[45] = tested on: Burkholderia cenocepacia; experiment: Antimicrobial activity against genomovar type III Burkholderia cenocepacia ATCC 17765 at 40 ug/disk by disk diffusion growth inhibition assay; format: functional, organism-based
[46] = tested on: Burkholderia cenocepacia; experiment: Antimicrobial activity against genomovar type III Burkholderia cenocepacia SAL1 at 40 ug/disk by disk diffusion growth inhibition assay; format: functional, organism-based
[47] = tested on: Burkholderia vietnamiensis; experiment: Antimicrobial activity against genomovar type V Burkholderia vietnamiensis LMG 10929 at 40 ug/disk by disk diffusion growth inhibition assay; format: functional; conditions: read-out: DIZ
[48] = tested on: Burkholderia cenocepacia; experiment: Antimicrobial activity against genomovar type III Burkholderia cenocepacia CEP511 at 40 ug/disk by disk diffusion growth inhibition assay; format: functional, organism-based
[49] = tested on: Burkholderia cenocepacia; experiment: Antimicrobial activity against genomovar type III Burkholderia cenocepacia C6433 at 40 ug/disk by disk diffusion growth inhibition assay; format: functional, organism-based
[50] = tested on: Burkholderia multivorans; experiment: Antimicrobial activity against genomovar type II Burkholderia multivorans C1962; format: functional
[51] = tested on: Burkholderia stabilis; experiment: Antimicrobial activity against genomovar type IV Burkholderia stabilis LMG 18888 at 40 ug/disk by disk diffusion growth inhibition assay; format: functional
[52] = tested on: Burkholderia stabilis; experiment: Antimicrobial activity against genomovar type IV Burkholderia stabilis C7322 at 40 ug/disk by disk diffusion growth inhibition assay; format: functional; conditions: read-out: DIZ
[53] = tested on: Burkholderia multivorans; experiment: Antimicrobial activity against genomovar type II Burkholderia multivorans 2492-2 at 40 ug/disk by disk diffusion growth inhibition assay; format: functional; conditions: read-out: DIZ
[54] = tested on: Burkholderia anthina; experiment: Antimicrobial activity against genomovar type VIII Burkholderia anthina J2552 at 40 ug/disk by disk diffusion growth inhibition assay; format: functional

In the case of `C[C@@H](O)[C@H](NC(=O)c1ccc(C#Cc2ccc(CN3CCOCC3)cc2)cc1)C(=O)NO`, the MIC [1] is reported as 1.56 µg/mL (≈ 3.57 µM), the zone of inhibition at 40 µg/disc [2] is reported as 9 mm and the zone of inhibition at 40 µg/disc [3] is reported as 24 mm. For the same compound, the MIC [4] was 0.1 µg/mL (≈ 0.229 µM), the zone of inhibition at 40 µg/disc [5] was 26 mm and the zone of inhibition at 40 µg/disc [6] was 10 mm. For the same compound, the “diameter of the inhibition zone (DIZ)” value [7] was “inactive”, the “diameter of the inhibition zone (DIZ)” value [8] was “inactive” and the zone of inhibition at 40 µg/disc [9] was 20 mm. For the same compound, the zone of inhibition at 40 µg/disc [10] was 14 mm, the zone of inhibition at 40 µg/disc [11] was 23 mm and the zone of inhibition at 40 µg/disc [12] was 19 mm. The zone of inhibition at 40 µg/disc [13] was 13 mm, the “diameter of the inhibition zone (DIZ)” value [14] was “inactive” and the MIC [15] was 12.5 µg/mL (≈ 28.6 µM). For the same compound, the zone of inhibition at 40 µg/disc [16] was 18 mm, the zone of inhibition at 40 µg/disc [17] was 23 mm and the zone of inhibition at 40 µg/disc [18] was 21 mm. For the same compound, the zone of inhibition at 40 µg/disc [19] was 24 mm, the “diameter of the inhibition zone (DIZ)” value [20] was “inactive” and the MIC [21] was 0.05 µg/mL (≈ 0.114 µM). For the same compound, the zone of inhibition at 40 µg/disc [22] was 20 mm, the zone of inhibition at 40 µg/disc [23] was 18 mm and the “diameter of the inhibition zone (DIZ)” value [24] was “inactive”. The “diameter of the inhibition zone (DIZ)” value [25] was “inactive”, the zone of inhibition at 40 µg/disc [26] was 24 mm and the “diameter of the inhibition zone (DIZ)” value [27] was “inactive”. For the same compound, the zone of inhibition at 40 µg/disc [28] was 23 mm, the “diameter of the inhibition zone (DIZ)” value [29] was “inactive” and the MIC [30] was 6.25 µg/mL (≈ 14.3 µM). For the same compound, the zone of inhibition at 40 µg/disc [31] was 22 mm, the MIC [32] was 1.56 µg/mL (≈ 3.57 µM) and the “diameter of the inhibition zone (DIZ)” value [33] was “inactive”. It also gave an MIC [34] of 0.78 µg/mL (≈ 1.78 µM), a zone of inhibition at 40 µg/disc [35] of 17 mm and a zone of inhibition at 40 µg/disc [36] of 21 mm. The MIC [37] was 3.13 µg/mL (≈ 7.15 µM), the zone of inhibition at 40 µg/disc [38] was 23 mm and the zone of inhibition at 40 µg/disc [39] was 22 mm. The MIC [40] was 0.78 µg/mL (≈ 1.78 µM), the “diameter of the inhibition zone (DIZ)” value [41] was “inactive” and the zone of inhibition at 40 µg/disc [42] was 22 mm. For the same compound, the zone of inhibition at 40 µg/disc [43] was 23 mm, the zone of inhibition at 40 µg/disc [44] was 15 mm and the “diameter of the inhibition zone (DIZ)” value [45] was “inactive”. The “diameter of the inhibition zone (DIZ)” value [46] was “inactive”, the zone of inhibition at 40 µg/disc [47] was 23 mm and the “diameter of the inhibition zone (DIZ)” value [48] was “inactive”. For the same compound, the “diameter of the inhibition zone (DIZ)” value [49] was “inactive”, the MIC [50] was 3.13 µg/mL (≈ 7.15 µM) and the “diameter of the inhibition zone (DIZ)” value [51] was “inactive”. For the same compound, the zone of inhibition at 40 µg/disc [52] was 14 mm, the zone of inhibition at 40 µg/disc [53] was 26 mm and the “diameter of the inhibition zone (DIZ)” value [54] was “inactive”.
